One experiment deals with VZV strain Ellen. The experiment can be described thus: VZV antiviral (ELISA) assay in human foreskin fibroblast cells. In kind it is cell-based, varicella-zoster virus. As for the experimental part: VZV antiviral (ELISA) assay
For the generation of stock VZV to be used in the assay, VZV strain Ellen (ATCC #VR-1367) is used to infect human foreskin fibroblast (HFF) cells at low multiplicity (less than 0.1) and incubated overnight at 37°C in 5% CO2. After the overnight incubation, the mixture of uninfected and VZV-infected HFF infected cells are then harvested and added to each well of 96-well plates (3.5x10^4 cells in 100 µl DMEM supplemented with 2% FBS) which contain test compound or the reference standard drug control (in 100µl DMEM supplemented with 2% FBS per well). These cells are incubated for three days at 37°C in 5% CO2, then fixed for ELISA assay. The primary antibody is murine anti-VZV glycoprotein II monoclonal antibody (Applied Biosystems, Inc. #13-145-100) and the secondary antibody is goat anti-mouse IgG linked to β-galactosidase. Thus the extent of viral replication is determined by assessing β-galactosidase activity by quantifying the generation of the 4-methyl umbelliferone fluorescent cleavage product after addition of the methyl umbelliferyl-β-D-galactoside (Sigma #M1633) substrate on a microfluorimeter (365nm for excitation and 450nm for emission). Antiviral activity (IC50) of the test compound is determined by comparing the flourescence obtained in absence of compound to that obtained in the presence of compound.
For orientation: In an ELISA, binding on a coated surface is turned into a signal by an enzyme label.

In a further experiment the test system is HSV-1. The experiment can be described thus: HSV antiviral (ELISA) assay in Vero cells. In kind it is cell-based, herpes simplex virus type 1. The settings on record: read-out: IC50 (ug/ml) HSV. As for the experimental part:
HSV antiviral (ELISA) assay
Vero cells (ATCC #CCL-81) are plated on 96-well tissue culture plates at 3.5x10^4 cells per 100µl tissue culture DMEM (Dulbecco's modified Eagle media) supplemented with 2% fetal bovine serum (FBS) in each well. After overnight incubation @ 37°C (in 5% CO2) and 30 minutes prior to infection with HSV-1 (multiplicity of infection equal to 0.006), cells are either untreated, or treated with test compound (multiple concentrations) or reference standard drug control. After approximately 24 hours post-infection incubation @ 37°C (in 5% CO2), cells are fixed for ELISA assay. The primary antibody is murine anti-HSV glycoprotein D monoclonal primary antibody and the secondary antibody is goat anti-mouse IgG linked to β-galactosidase. Thus the extent of viral replication is determined by assessing β-galactosidase activity by quantifying the generation of the 4-methyl umbelliferone fluorescent cleavage product after addition of the methyl umbelliferyl-β-D-galactoside (Sigma #M1633) substrate on a microfluorimeter (365nm for excitation and 450nm for emission). Antiviral activity (IC50) of the test compound is determined by comparing the flourescence obtained in absence of compound to that obtained in the presence of compound.

The subject of experiment [1] is HCMV recombinant mutant virus. Description: microbe, parasite or virus in culture. In kind it is cell-based, human cytomegalovirus. The settings on record: Human betaherpesvirus 5, read-out: IC50 (ug/ml) HCMV. From the text:
Microtiter plate assay. Ninety-six well plate cultures of human foreskin fibroblasts are infected in the presence of inhibitor compound with a HCMV recombinant mutant virus whose genome contains the prokaryotic beta-glucuronidase gene (Jefferson, R. A., S. M. Burgess, and D. Hirsh. 1986. Beta-glucuronidase from Escherichia coli as a gene fusion marker. Proc. Natl. Acad. Sci. USA 83:8447-8451) whose expression is controlled by a viral promoter. An example of such a virus is RV145 (Jones, T. R., V. P. Muzithras, and Y. Gluzman. 1991. Replacement mutagenesis of the human cytomegalovirus genome: US10 and US11 gene products are nonessential. J. Virol. 65:5860-5872). Since it is under the control of a viral promoter, beta-glucuronidase expression is an indirect indicator of growth and replication of HCMV in this assay. At 96 hours post-infection, the infected cell lysates are prepared (using 50mM sodium phosphate [pH7.0] containing 0.1 % Triton X-100 and 0.1% sarkosyl) and assayed for beta-glucuronidase activity using a substrate for the enzyme which when cleaved yields either a product which can be measured colorimetrically in a spectrophotometer or fluorescently in a microfluorimeter. Examples of such substrates are p-nitrophenyl-beta-D-glucuronide and methylumbelliferylglucuronide, respectively. The presence of an antiviral compound is indicated by the reduced expression of the HCMV genome resident beta-glucuronidase gene, compared to the absence of inhibitor. […] Data from this assay generated using varying amounts of inhibitor compound is also used to estimate the IC50 of an inhibitor compound.

Where [2] appears, read: Human alphaherpesvirus 3, Fibroblast; read-out: % inhibition 10 ug/ml VZV.
[3] abbreviates: Human alphaherpesvirus 3; VZV strain Ellen in HFF cells; read-out: IC50 (ug/ml) VZV.
Setting [4] is: Human alphaherpesvirus 1, HSV-1 in Vero cells.
Setting [5] is: Human alphaherpesvirus 3, Fibroblast, read-out: % inhibition 10 ug/ml VZV.
Where [6] appears, read: Human alphaherpesvirus 3, HFF, read-out: IC50 (ug/ml) VZV.

Converted amounts (≈) assume the structure as drawn. Like-named read-outs stand apart in the source and are kept apart here.

`COc1cc(NC(=O)c2ccccc2F)ccc1NC(=S)Nc1ccc(C)c(Cl)c1` [Example 419, N-{4-[3-(3-Chloro-4-methyl-phenyl)-thioureido]-3-methoxy-phenyl}-2-fluoro-benzamide]: in the experiment on VZV strain Ellen (setting [2]), the inhibition at 10 µg/mL turned out to be 3%. In addition, the IC50 is above 10 µg/mL in the experiment with VZV strain Ellen (setting [3]), 0.2 µg/mL (≈ 0.451 µM) in the experiment with HSV-1 (setting [4]) and above 10 µg/mL in experiment [1].
`COc1cc(NC(=S)NC(C)c2ccc(F)cc2)c(C)cc1NC(=O)c1ccccc1F` (stereo not shown) [Example 1031, 2-Fluoro-N-(4-{3-[1-(4-fluoro-phenyl)-ethyl]-thioureido}-2-methoxy-5-methyl-phenyl)-benzamide]: the IC50 was 0.7 µg/mL (≈ 1.54 µM) with VZV strain Ellen (setting [3]), above 10 µg/mL with HSV-1 (setting [4]) and above 10 µg/mL in experiment [1].
For the compound `CC(NC(=S)Nc1ccc(NC(=O)c2cc3ccccc3cn2)c(C#N)c1)c1ccc(F)cc1` (stereo not shown) [Example 1071, Isoquinoline-3-carboxylic acid (2-cyano-4-{3-[1-(4-fluoro-phenyl)-ethyl]-thioureido}-phenyl)-amide], the values for the IC50 (with VZV strain Ellen (setting [3]); with HSV-1 (setting [4]); in experiment [1]) were 0.03 µg/mL (≈ 0.0639 µM), 9 µg/mL (≈ 19.2 µM) and above 10 µg/mL, respectively.
As for `Cc1cc(NC(=S)NC(C)c2ccc(F)cc2)ccc1NC(=O)c1nccc2ccccc12` (stereo not shown) [Example 1072, Isoquinoline-1-carboxylic acid (4-{3-[1-(4-fluoro-phenyl)-ethyl]-thioureido}-2-methyl-phenyl)-amide], the IC50 in the experiment on VZV strain Ellen (setting [3]) is 0.027 µg/mL (≈ 0.0589 µM); in the experiment with HSV-1 (setting [4]) it was above 10 µg/mL; in experiment [1], above 10 µg/mL.
Take `CC(NC(=S)Nc1ccc(NC(=O)c2ccccc2F)c(C(F)(F)F)c1)c1ccc(F)cc1` (stereo not shown) [Example 1034, 2-Fluoro-N-(4-{3-[1-(4-fluoro-phenyl)-ethyl]-thioureido}-2-trifluoromethyl-phenyl)-benzamide]: the figures for the IC50 (with VZV strain Ellen (setting [3]); in the experiment on HSV-1 (setting [4]); in experiment [1]) were 0.03 µg/mL (≈ 0.0626 µM), above 10 µg/mL and 2.6 µg/mL (≈ 5.42 µM), respectively.
In the same order, the values of `Cc1cc(NC(=S)NC(C)c2cc3ccccc3o2)ccc1NC(=O)c1ccccc1F` (stereo not shown) [Example 1048, N-{4-[3-(1-Benzofuran-2-yl-ethyl)-thioureido]-2-methyl-phenyl}-2-fluoro-benzamide] are 0.061 µg/mL (≈ 0.136 µM), above 10 µg/mL and 3.4 µg/mL (≈ 7.6 µM).
As for `COc1cc(OC)c(NC(=S)Nc2ccc(NC(=O)c3ccccc3F)c(C(F)(F)F)c2)cc1Cl` [Example 402, N-{4-[3-(5-Chloro-2,4-dimethoxy-phenyl)-thioureido]-2-trifluoromethyl-phenyl}-2-fluoro-benzamide], the inhibition at 10 µg/mL in the experiment on VZV strain Ellen (setting [2]) was determined as 13%. The IC50 was above 10 µg/mL with VZV strain Ellen (setting [3]), above 10 µg/mL in the experiment with HSV-1 (setting [4]) and 4 µg/mL (≈ 7.58 µM) in experiment [1].
Consider `Cc1c(C)c(NC(=S)NC(C)c2ccc(F)cc2)c(C)c(C)c1NC(=O)c1ccccc1F` (stereo not shown) [Example 1023, 2-Fluoro-N-(4-{3-[1-(4-fluoro-phenyl)-ethyl]-thioureido}-2,3,5,6-tetramethyl-phenyl)-benzamide], for which the IC50 with VZV strain Ellen (setting [3]) was 10 µg/mL (≈ 21.4 µM); in the experiment with HSV-1 (setting [4]), above 10 µg/mL; in experiment [1] it was 9 µg/mL (≈ 19.2 µM).
Turning to `COc1cc(OC)c(NC(=S)Nc2ccc(NC(=O)c3c(F)cccc3F)cc2C)cc1Cl` [Example 347, N-{4-[3-(5-Chloro-2,4-dimethoxy-phenyl)-thioureido]-3-methyl-phenyl}-2,6-difluoro-benzamide], the inhibition at 10 µg/mL in the experiment with VZV strain Ellen (setting [2]) is 34%. Moreover, the IC50 was above 10 µg/mL in the experiment on VZV strain Ellen (setting [3]), 0.06 µg/mL (≈ 0.122 µM) in the experiment on HSV-1 (setting [4]) and 10 µg/mL (≈ 20.3 µM) in experiment [1].
In the same order, the values of `COc1cc(OC)c(NC(=S)Nc2cc(OC)c(NC(=O)c3ccccc3F)cc2C)cc1Cl` [Example 286, N-{4-[3-(5-Chloro-2,4-dimethoxy-phenyl)-thioureido]-2-methoxy-5-methyl-phenyl}-2-fluoro-benzamide] are 5%, above 10 µg/mL, 2 µg/mL (≈ 3.97 µM) and 40 µg/mL (≈ 79.4 µM).
As to `COc1cc(OC)c(NC(=S)Nc2ccc(NC(=O)c3ccccc3F)c(C(=O)O)c2)cc1Cl` [Example 338, 5-[3-(5-Chloro-2,4-dimethoxy-phenyl)-thioureido]-2-(2-fluoro-benzoylamino)-benzoic acid], the inhibition at 10 µg/mL in the experiment with VZV strain Ellen (setting [5]) is 13%. Moreover, the IC50 in the experiment with VZV strain Ellen (setting [6]) was above 10 µg/mL; with HSV-1 (Human alphaherpesvirus 1, Vero) it was above 50 µg/mL; in experiment [1], 35 µg/mL (≈ 69.5 µM).
Regarding `Cc1cc(NC(=S)NC(C)c2ccc(F)cc2)ccc1NC(=O)c1ccccc1F` (stereo not shown) [Example 1045, 2-Fluoro-N-(4-{3-[1-(4-fluoro-phenyl)-ethyl]-thioureido}-2-methyl-phenyl)-benzamide], the IC50 turned out to be 0.05 µg/mL (≈ 0.118 µM) with VZV strain Ellen (setting [3]), 6.2 µg/mL (≈ 14.6 µM) with HSV-1 (setting [4]) and 1.5 µg/mL (≈ 3.53 µM) in experiment [1].
The matching figures for `CC(NC(=S)Nc1ccc(NC(=O)c2ccccc2F)c(C#N)c1)c1ccc(Br)cc1` (stereo not shown) [Example 1041, N-(4-{3-[1-(4-Bromo-phenyl)-ethyl]-thioureido}-2-cyano-phenyl)-2-fluoro-benzamide]: 0.096 µg/mL (≈ 0.193 µM), above 10 µg/mL and 10.4 µg/mL (≈ 20.9 µM).
With `COc1cc(OC)c(NC(=S)Nc2ccc(NC(=O)c3ccccc3F)c(C(=O)Nc3ccccc3)c2)cc1Cl` [Example 301, 5-[[[(5-Chloro-2,4-dimethoxyphenyl)amino]thioxomethyl]amino]-2-[(2-fluorobenzoyl)amino]-N-phenyl-benzamide], in the experiment on VZV strain Ellen (setting [2]), the inhibition at 10 µg/mL was 10%. Further, the IC50 is above 10 µg/mL in the experiment on VZV strain Ellen (setting [3]), 10 µg/mL (≈ 17.3 µM) with HSV-1 (setting [4]) and above 10 µg/mL in experiment [1].
For `COc1cc(OC)c(NC(=S)Nc2cc(OC)c(NC(=O)c3ccccc3F)cc2OC)cc1Cl` [Example 260, N-{4-[3-(5-Chloro-2,4-dimethoxy-phenyl)-thioureido]-2,5-dimethoxy-phenyl}-2-fluoro-benzamide], the inhibition at 10 µg/mL in the experiment with VZV strain Ellen (setting [5]) is 18%. For the same compound, the IC50 with VZV strain Ellen (setting [6]) was 7 µg/mL (≈ 13.5 µM); in the experiment with HSV-1 (Human alphaherpesvirus 1, Vero), above 10 µg/mL; in experiment [1], above 10 µg/mL.
Consider `CC(NC(=S)Nc1ccc(NC(=O)c2nccc3ccccc23)c(C#N)c1)c1ccc(F)cc1` (stereo not shown) [Example 1069, Isoquinoline-1-carboxylic acid (2-cyano-4-{3-[1-(4-fluoro-phenyl)-ethyl]-thioureido}-phenyl)-amide], for which the values for the IC50 (with VZV strain Ellen (setting [3]); with HSV-1 (setting [4]); in experiment [1]) were 0.019 µg/mL (≈ 0.0405 µM), above 10 µg/mL and 4 µg/mL (≈ 8.52 µM), respectively.
In the same order, the values of `CC(NC(=S)Nc1ccc(NC(=O)c2ccccc2F)c(C(F)(F)F)c1)c1ccc(C#N)cc1` (stereo not shown) [Example 1036, N-(4-{3-[1-(4-Cyano-phenyl)-ethyl]-thioureido}-2-trifluoromethyl-phenyl)-2-fluoro-benzamide] are 0.31 µg/mL (≈ 0.637 µM), 4 µg/mL (≈ 8.22 µM) and 2.1 µg/mL (≈ 4.32 µM).
As for `Cc1cc(NC(=S)NC(C)c2ccc(F)cc2)ccc1NC(=O)c1cc2ccccc2o1` (stereo not shown) [Example 1073, Benzofuran-2-carboxylic acid (4-{3-[1-(4-fluoro-phenyl)-ethyl]-thioureido}-2-methyl-phenyl)-amide], the figures for the IC50 (in the experiment on VZV strain Ellen (setting [3]); in the experiment on HSV-1 (setting [4]); in experiment [1]) were 0.47 µg/mL (≈ 1.05 µM), 4.6 µg/mL (≈ 10.3 µM) and 6.3 µg/mL (≈ 14.1 µM), respectively.
